# Laboratory results from patent US5521319A, “Biotinylation reagent and method of use thereof” (priority 1993, dated 1996).
# Key:
# [1] = Solubility of biotinylation reagents at 20° C.; type: physicochemical; conditions: for Solubility in DMF / Solubility in methanol / Solubility in water / Solubility in dichloromethane: 20° C.
# Text: [table 1: the next 15 blocks are its lines as printed, fixed-width]
# [2] = test system: TSH; assay: Electrochemiluminescence immunological determination of TSH with biotinylated antibody, ruthenium-labelled F(ab')2 and streptavidin magnetic particles
# Text: (§1) After dialysis against 25 mmol/l potassium phosphate/50 mmol/l sodium chloride pH 7.0, the product is lyophilized.
# [3] = test system: TSH; assay: Immunological determination of TSH using streptavidin magnetic particles and photometric signal measurement
# Text: as §1
# [4] = cited from earlier work; for Solubility in organic solvents: organic solvents with the exception of DMSO and DMF
# [5] = electrochemiluminescence measurement, vs biotin-NHS
SMILES,Solubility in DMF [1],Solubility in methanol [1],Solubility in water ([1]; water),Solubility in dichloromethane ([1]; dichloromethane),"Signal of biotinylated antibodies compared with spacer-free biotin-NHS [2, 5]",Solubility in organic solvents [4],Solubility in water and aqueous buffer solutions [4],further results
O=C(CCCC[C@@H]1SC[C@@H]2NC(=O)N[C@@H]21)NCCCCCC(=O)ON1C(=O)CCC1=O [NHS-LC-biotin],20000 µg/mL,20000 µg/mL,2000 µg/mL,,,,,
"O=C(CCCCCCC(=O)ON1C(=O)CCC1=O)NCCOCCOCCNC(=O)CCCC[C@@H]1SC[C@@H]2NC(=O)N[C@@H]21 [biotin-DDS, biotinoyl-amino-3,6-dioxaoctanyl-aminocarbonyl-heptanoic acid-N-hydroxysuccinimide ester]",20000 µg/mL,20000 µg/mL,7000 µg/mL,10000 µg/mL,considerably higher signals,,,"Solubility spectrum compared with known reagents ([1]; compared with biotinylation reagents of the state of the art): considerably broader solubility spectrum than known compounds; Solubility in strongly polar (water) and non-polar (dichloromethane) solvents ([1]; water, dichloromethane): good solubility; Performance of conjugates produced with the reagent, better than with biotin-NHS ([2]; electrochemiluminescence and other immunological tests with spherical solid phases, vs biotin-NHS): about 3.5 fold; Performance of conjugates produced with the reagent, better than with biotin-X-NHS ([2]; electrochemiluminescence and other immunological tests with spherical solid phases, vs biotin-X-NHS): 1.3 fold; Signal yield of antibodies biotinylated via biotin-DDS, higher than via biotin-X-NHS ([2]; electrochemiluminescence measurement, vs antibodies biotinylated via biotin-X-NHS): 25.7%; Photometric signal of labelled antibody compared with biotin-X-NHS ([3]; magnetic particle test with antibody-POD conjugate, vs antibody biotinylated with biotin-X-NHS): significantly higher signals; Degree of biotinylation giving the signal optimum ([3]; photometric measurement): signal optimum at a lower degree of biotinylation"
"O=C1N[C@H]2[C@H](CS[C@H]2CCCCC(=O)ON2C(=O)CCC2=O)N1 [biotin-NHS, biotin-N-hydroxysuccinimide esters]",,,,,,only moderately soluble,only moderate solubility,
"O=C(CCCC[C@@H]1SC[C@@H]2NC(=O)N[C@@H]21)NCCCCCC(=O)ON1C(=O)CCC1=O [biotin-X-NHS, biotinoylaminocaproic acidN-hydroxysuccinimide ester]",10000 µg/mL,10000 µg/mL,10000 µg/mL,< 1000 µg/mL,considerably higher signals,only moderately soluble,only moderate solubility,
O=C(CCCC[C@@H]1SC[C@@H]2NC(=O)N[C@@H]21)NCCCCCC(=O)ON1C(=O)CC(S(=O)(=O)O)C1=O (some centres unmarked) [sulfo-NHS-LC-biotin],,,,,,,,"Solubility in an aqueous medium ([4]; aqueous medium): good solubility; Solubility in organic solvents in the required concentrations ([4]; organic solvents, in the required concentrations): not soluble"
